The values that follow are results of earlier work, collected in publication PMC7523345 (Investigational new drugs, 2018).

SMILES strings stand for the structures.

In data set [1] the test system is TNBC cells with NOTCH1 re-arrangements. To be noted: in vitro and in vivo; cited from earlier work.
The test system of data set [2] is TNBC cells with NOTCH2 rearrangement. As to conditions: cited from earlier work.

`O=S1(=O)N[C@@]2(CN1CC(F)(F)F)[C@@H]1CC[C@H]2Cc2ccc(/C=C/CN3CCC(C(F)(F)F)CC3)cc2C1` [MRK-003]: in data set [1], the “Sensitivity of TNBC cells with NOTCH1 re-arrangements” value is recorded as “sensitive”. In addition, the “Sensitivity of TNBC cells with NOTCH2 rearrangement” value in data set [2] is reported as “resistant”.
